From patent US9149038B2, “4-amino-6-(heterocyclic)picolinates and 6-amino-2-(heterocyclic)pyrimidine-4-carboxylates and their use as herbicides” (Dow AgroSciences LLC, priority 2013, dated 2015)
Read-outs that look alike come from different tables or passages of the source.

Assays:
[1] = test system: Key Broadleaf Weed and Crop Species; assay: Post-Emergent Test II: postemergent herbicidal activity, visual rating after 14 d (Table 7); assay type: in vivo; settings: post-emergence, 336 h; for pest or weed control at 35 g/ha: 35 g ai/ha; for pest or weed control at 70 g/ha: 70 g ai/ha; for pest or weed control at 140 g/ha: 140 g ai/ha
Summary of the method: (§1)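 Plants were raised in a greenhouse for 7-21 d and treated once at the first or second true leaf stage. Compounds, dissolved in 97:3 acetone:DMSO then diluted into an aqueous acetone/isopropanol/crop oil/Triton X-155 carrier, were applied by overhead track sprayer at 187 L/ha. After 14 d with subirrigation, injury was scored visually from 0 (none) to 100 (complete kill).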

[2] = test system: Key Grass and Sedge Weeds as well as Grass Crops; assay: Post-Emergent Test II: postemergent herbicidal activity, visual rating after 14 d (Table 8); assay type: in vivo; settings: post-emergence, 336 h; for pest or weed control at 35 g/ha: 35 g ai/ha; for pest or weed control at 70 g/ha: 70 g ai/ha; for pest or weed control at 140 g/ha: 140 g ai/ha
Summary of the method: as §1

[3] = ABUTH: velvetleaf (Abutilon theophrasti), read-out: Visual Growth Reduction (%) 14 Days After Application ABUTH
[4] = AMARE: redroot pigweed (Amaranthus retroflexus), read-out: Visual Growth Reduction (%) 14 Days After Application AMARE
[5] = BRSNN: oilseed rape, canola (Brassica napus), read-out: Visual Growth Reduction (%) 14 Days After Application BRSNN
[6] = CHEAL: lambsquarters (Chenopodium album), read-out: Visual Growth Reduction (%) 14 Days After Application CHEAL
[7] = EPHHL: wild poinsettia (Euphorbia heterophylla), read-out: Visual Growth Reduction (%) 14 Days After Application EPHHL
[8] = HELAN: sunflower (Helianthus annuus), read-out: Visual Growth Reduction (%) 14 Days After Application HELAN
[9] = barnyardgrass (Echinochloa crus-galli), read-out: Visual Growth Reduction (%) 14 Days After Application, ECHCG
[10] = giant foxtail (Setaria faberi), read-out: Visual Growth Reduction (%) 14 Days After Application, SETFA
[11] = maize, corn (Zea mays), read-out: Visual Growth Reduction (%) 14 Days After Application, ZEAMX
[12] = rice (Oryza sativa), read-out: Visual Growth Reduction (%) 14 Days After Application, ORYSA
[13] = wheat, spring (Triticum aestivum), read-out: Visual Growth Reduction (%) 14 Days After Application, TRZAS
[14] = yellow nutsedge (Cyperus esculentus), read-out: Visual Growth Reduction (%) 14 Days After Application, CYPES

| SMILES | pest or weed control at 35 g/ha [1, 3] | pest or weed control at 70 g/ha [1, 3] | pest or weed control at 140 g/ha [1, 3] | pest or weed control at 35 g/ha [1, 4] | pest or weed control at 70 g/ha [1, 4] | pest or weed control at 140 g/ha [1, 4] | pest or weed control at 35 g/ha [1, 5] | pest or weed control at 70 g/ha [1, 5] | pest or weed control at 140 g/ha [1, 5] | pest or weed control at 35 g/ha [1, 6] | pest or weed control at 70 g/ha [1, 6] | pest or weed control at 140 g/ha [1, 6] | pest or weed control at 35 g/ha [1, 7] | pest or weed control at 70 g/ha [1, 7] | pest or weed control at 140 g/ha [1, 7] | pest or weed control at 35 g/ha [1, 8] | pest or weed control at 70 g/ha [1, 8] | pest or weed control at 140 g/ha [1, 8] | pest or weed control at 35 g/ha [2, 9] | pest or weed control at 70 g/ha [2, 9] | other results |
| --- | --- | --- | --- | --- | --- | --- | --- | --- | --- | --- | --- | --- | --- | --- | --- | --- | --- | --- | --- | --- | --- |
| COC(=O)c1nc(-c2cccc3c2OCO3)nc(N)c1OC [Compound 98] | 0 to 29% | 0 to 29% | 0 to 29% | 0 to 29% | 0 to 29% | 30 to 44% | 0 to 29% | 0 to 29% | 0 to 29% | 45 to 59% | 60 to 74% | 60 to 74% | 0 to 29% | 0 to 29% | 0 to 29% | 0 to 29% | 30 to 44% | 60 to 74% | 0 to 29% | 0 to 29% | pest or weed control at 140 g/ha [2, 9]: 0 to 29%; pest or weed control at 35 g/ha [2, 10]: 0 to 29%; pest or weed control at 70 g/ha [2, 10]: 0 to 29%; pest or weed control at 140 g/ha [2, 10]: 0 to 29%; pest or weed control at 35 g/ha [2, 11]: 0 to 29%; pest or weed control at 70 g/ha [2, 11]: 0 to 29%; pest or weed control at 140 g/ha [2, 11]: 0 to 29%; pest or weed control at 35 g/ha [2, 12]: 0 to 29%; pest or weed control at 70 g/ha [2, 12]: 0 to 29%; pest or weed control at 140 g/ha [2, 12]: 0 to 29%; pest or weed control at 35 g/ha [2, 13]: 0 to 29%; pest or weed control at 70 g/ha [2, 13]: 0 to 29%; pest or weed control at 140 g/ha [2, 13]: 0 to 29%; pest or weed control at 35 g/ha [2, 14]: 0 to 29%; pest or weed control at 70 g/ha [2, 14]: 0 to 29%; pest or weed control at 140 g/ha [2, 14]: 0 to 29% |
| COC(=O)c1nc(-c2ccc(Cl)c3c2OC(F)(F)O3)c(C)c(N)c1Cl [Compound 94] | 30 to 44% | 45 to 59% | 45 to 59% | 95 to 100% | 95 to 100% | 95 to 100% | 0 to 29% | 0 to 29% | 0 to 29% | 75 to 84% | 85 to 94% | 85 to 94% | 0 to 29% | 0 to 29% | 0 to 29% | 60 to 74% | 85 to 94% | 95 to 100% | 0 to 29% | 0 to 29% | pest or weed control at 140 g/ha [2, 9]: 0 to 29%; pest or weed control at 35 g/ha [2, 10]: 0 to 29%; pest or weed control at 70 g/ha [2, 10]: 0 to 29%; pest or weed control at 140 g/ha [2, 10]: 0 to 29%; pest or weed control at 35 g/ha [2, 12]: 0 to 29%; pest or weed control at 70 g/ha [2, 12]: 0 to 29%; pest or weed control at 140 g/ha [2, 12]: 0 to 29%; pest or weed control at 35 g/ha [2, 13]: 0 to 29%; pest or weed control at 70 g/ha [2, 13]: 0 to 29%; pest or weed control at 140 g/ha [2, 13]: 0 to 29%; pest or weed control at 35 g/ha [2, 14]: 0 to 29%; pest or weed control at 70 g/ha [2, 14]: 0 to 29%; pest or weed control at 140 g/ha [2, 14]: 0 to 29% |
| COC(=O)c1nc(-c2ccc(F)c3c2OCO3)cc(N)c1Cl [Compound 92] | 60 to 74% | 85 to 94% | 85 to 94% | 95 to 100% | 95 to 100% | 95 to 100% | 30 to 44% | 60 to 74% | 75 to 84% | 95 to 100% | 85 to 94% | 95 to 100% | 0 to 29% | 0 to 29% | 0 to 29% | 60 to 74% | 60 to 74% | 75 to 84% | 0 to 29% | 0 to 29% | pest or weed control at 140 g/ha [2, 9]: 0 to 29%; pest or weed control at 35 g/ha [2, 10]: 0 to 29%; pest or weed control at 70 g/ha [2, 10]: 0 to 29%; pest or weed control at 140 g/ha [2, 10]: 0 to 29%; pest or weed control at 35 g/ha [2, 11]: 0 to 29%; pest or weed control at 70 g/ha [2, 11]: 0 to 29%; pest or weed control at 140 g/ha [2, 11]: 0 to 29%; pest or weed control at 35 g/ha [2, 12]: 0 to 29%; pest or weed control at 70 g/ha [2, 12]: 0 to 29%; pest or weed control at 140 g/ha [2, 12]: 0 to 29%; pest or weed control at 35 g/ha [2, 13]: 0 to 29%; pest or weed control at 70 g/ha [2, 13]: 0 to 29%; pest or weed control at 140 g/ha [2, 13]: 0 to 29%; pest or weed control at 35 g/ha [2, 14]: 0 to 29%; pest or weed control at 70 g/ha [2, 14]: 0 to 29%; pest or weed control at 140 g/ha [2, 14]: 0 to 29% |
